Assay [1] in a line: Inhibition of TNF-alpha production in LPS stimulated human PBMC at 360 uM. It is filed as functional.
Assay [2] is described as follows: Inhibition of TNF-alpha production in LPS stimulated human PBMC. The format is functional.

Among the data in ChEMBL document CHEMBL1136276, “Alpha-fluoro-substituted thalidomide analogues” (Bioorg Med Chem Lett, 2003) are inhibition and IC50 values, retold here.

One may read the inhibition as the change of the read-out against control, counted positive when it falls. Read a low inhibition as little suppression. For the molecule `O=C1CCC(F)(N2C(=O)c3ccccc3C2=O)C(=O)N1` (stereo not drawn), the inhibition at 360 µM in assay [1] was 80%. For orientation: IC50 means the concentration needed to halve the response being measured. A high value points to weaker potency in that assay. As to `Nc1cccc2c1C(=O)N(C1(F)CCC(=O)NC1=O)C2=O` (stereo not drawn), half-maximal inhibition in assay [2] (IC50) required 230 nM. Molecule `Nc1cccc2c1C(=O)N(C1CCC(=O)NC1=O)C2=O` (stereo not drawn) [POMALIDOMIDE] had an IC50 in assay [2] of 230 nM.
